The nature of data set [1]: Epacadostat plasma pharmacokinetics (LC-MS/MS, noncompartmental analysis). The class given is in vivo, human. The method, then: SAS® software, version 9.4 (SAS Institute Inc., Cary, NC) was used to generate all tables, graphs, and statistical analyses. […] Descriptive statistics were used to present summaries of continuous and categorical variables. Survival data (OS, PFS) were analyzed using the nonparametric Kaplan-Meier method.
Thirty-six patients were evaluable for pharmacokinetic analyses. […] Steady-state pharmacokinetic observations (Cycle 1, Day 10) are summarized in Additional file 1: Table S3.

Details of data set [2]: method as in PMID 28053021. The conditions noted are these: epacadostat monotherapy 300 mg BID, patients with advanced malignancies; cited from earlier work.
Data set [3] deals with metastatic melanoma. Also on record: method as in PMID 20525992, PMID 27622997, PMID 26027431. The conditions noted are these: ipilimumab monotherapy, previously treated patients; cited from earlier work.
Data set [4] has as its system untreated melanoma. The conditions noted are these: human, in vivo; cited from earlier work.
Setting [5] is: epacadostat 25 mg BID (n=10), steady state Cycle 1 Day 10.
Setting [6] is: epacadostat 50 mg BID continuous (n=13), steady state Cycle 1 Day 10.
Setting [7] is: epacadostat 50 mg BID intermittent (n=7), steady state Cycle 1 Day 10.
The mark [8] stands for this setting: epacadostat 300 mg BID (n=6), steady state Cycle 1 Day 10.

Where two headings read alike, the source gives them in different places.

These results are taken from paper PMC6425606 (Journal for Immunotherapy of Cancer, 2019).

The Cmax is the peak of the concentration-time curve. On to `NS(=O)(=O)NCCNc1nonc1C(=NO)Nc1ccc(F)c(Br)c1` [epacadostat], for which the “Increase of pharmacokinetic exposures (Cmax, AUC0–12h) with dose” value in data set [1] (between 25 mg BID and 300 mg BID) is reported as “dose-proportional”. The “CL/F, geometric mean” value in data set [1] (setting [5]) is 61.3 L/h; in data set [1] (setting [6]), 64.2 L/h; in data set [1] (setting [7]) it was 54.4 L/h; in data set [1] (setting [8]), 74.8 L/h. Moreover, the “CL/F, mean ± SD” value is 68.9 ± 32.1 L/h in data set [1] (setting [5]), 69.7 ± 29.8 L/h in data set [1] (setting [6]), 57.6 ± 21.7 L/h in data set [1] (setting [7]) and 77.6 ± 22.2 L/h in data set [1] (setting [8]). Further, the “Cmin, mean ± SD” value in data set [1] (setting [5]) is 30 ± 30 nM; in data set [1] (setting [6]), 60 ± 50 nM; in data set [1] (setting [7]), 60 ± 40 nM; in data set [1] (setting [8]), 300 ± 200 nM. In data set [1] (setting [6]), the “tmax, median” value is recorded as 2.0 h. The Cmax in data set [1] (epacadostat 50 mg BID continuous (n=13), steady state Cycle 1 Day 10, read-out: Cmax, geometric mean) is 400 nM; in data set [1] (epacadostat 50 mg BID continuous (n=13), steady state Cycle 1 Day 10, read-out: Cmax, mean ± SD), 500 ± 200 nM; in data set [1] (epacadostat 50 mg BID intermittent (n=7), steady state Cycle 1 Day 10, read-out: Cmax, geometric mean) it was 500 nM. Also, the “Cmin, geometric mean” value in data set [1] (setting [8]) came out at 200 nM. Also, the AUC(0-t) was 0.9 µM·h in data set [1] (human, plasma, oral, 25 mg, epacadostat 25 mg BID (n=10), steady state Cycle 1 Day 10, read-out: AUC0–12h, geometric mean); 1.1 ± 0.7 µM·h in data set [1] (human, plasma, oral, 25 mg, epacadostat 25 mg BID (n=10), steady state Cycle 1 Day 10, read-out: AUC0–12h, mean ± SD); 1.8 µM·h in data set [1] (human, plasma, oral, 50 mg, epacadostat 50 mg BID continuous (n=13), steady state Cycle 1 Day 10, read-out: AUC0–12h, geometric mean); 1.9 ± 0.8 µM·h in data set [1] (human, plasma, oral, 50 mg, epacadostat 50 mg BID continuous (n=13), steady state Cycle 1 Day 10, read-out: AUC0–12h, mean ± SD); 2.1 µM·h in data set [1] (human, plasma, oral, 50 mg, epacadostat 50 mg BID intermittent (n=7), steady state Cycle 1 Day 10, read-out: AUC0–12h, geometric mean); 2.2 ± 0.7 µM·h in data set [1] (human, plasma, oral, 50 mg, epacadostat 50 mg BID intermittent (n=7), steady state Cycle 1 Day 10, read-out: AUC0–12h, mean ± SD). Besides, the AUC(0-t) in data set [1] (human, plasma, oral, 300 mg, epacadostat 300 mg BID (n=6), steady state Cycle 1 Day 10, read-out: AUC0–12h, geometric mean) is 9.2 µM·h; in data set [1] (human, plasma, oral, 300 mg, epacadostat 300 mg BID (n=6), steady state Cycle 1 Day 10, read-out: AUC0–12h, mean ± SD), 9.5 ± 3 µM·h. Further, the half-life was 7.4 h in data set [1] (human, plasma, oral, 25 mg, epacadostat 25 mg BID (n=10), steady state Cycle 1 Day 10, read-out: t½, geometric mean (converted)); 9.1 ± 6.1 h in data set [1] (human, plasma, oral, 25 mg, epacadostat 25 mg BID (n=10), steady state Cycle 1 Day 10, read-out: t½, mean ± SD (converted)); 5.9 h in data set [1] (human, plasma, oral, 50 mg, epacadostat 50 mg BID continuous (n=13), steady state Cycle 1 Day 10, read-out: t½, geometric mean (converted)); 7.1 ± 5.5 h in data set [1] (human, plasma, oral, 50 mg, epacadostat 50 mg BID continuous (n=13), steady state Cycle 1 Day 10, read-out: t½, mean ± SD (converted)); 4.5 h in data set [1] (human, plasma, oral, 50 mg, epacadostat 50 mg BID intermittent (n=7), steady state Cycle 1 Day 10, read-out: t½, geometric mean (converted)); 5.1 ± 2.9 h in data set [1] (human, plasma, oral, 50 mg, epacadostat 50 mg BID intermittent (n=7), steady state Cycle 1 Day 10, read-out: t½, mean ± SD (converted)). In addition, the half-life in data set [1] (human, plasma, oral, 300 mg, epacadostat 300 mg BID (n=6), steady state Cycle 1 Day 10, read-out: t½, geometric mean (converted)) was 5.4 h; in data set [1] (human, plasma, oral, 300 mg, epacadostat 300 mg BID (n=6), steady state Cycle 1 Day 10, read-out: t½, mean ± SD (converted)), 6.2 ± 3.5 h; in data set [1] (human, plasma, po, repeat oral doses of 25 mg BID, 50 mg BID, 50 mg BID intermittent, 300 mg BID, read-out: Mean terminal elimination half-life (t½)), 5 to 9 h. In addition, the Tmax in data set [1] (human, plasma, repeat oral doses of 25 mg BID, 50 mg BID, 50 mg BID intermittent, 300 mg BID, read-out: Median time of maximum observed concentration (tmax)) is around 2 h. Further, the “Geometric mean AUC” value in data set [2] was 9.8 µM·h.

Regarding “ipilimumab: anti-CTLA-4 antibody, immune checkpoint inhibitor”, in data set [3], the Overall response rate is 11%. In data set [4], the “Patients with grade 3/4 treatment-emergent AEs” value is 56% and the “Rate of irAEs (grade 3/4)” value is given as 19%.
